This is an account of results in patent US4533665A, “[[Bis(aryl)methylene]-1-piperidinyl]alkyl-pyrimidinones” (Janssen Pharmaceutica, priority 1984, dated 1985).

Counter-ions that a name gives are not always drawn.

This test concerns the target T1, S2-receptor (Rattus norvegicus, UniProt P14842).
T1 construct: Caudal arteries from fasted male rats; from tissue; host or cells: rat caudal artery, helical strips
Put plainly: antagonistic activity on the effect of serotonin on the caudal artery of the rat (caudal artery test). The settings on record: rat caudal artery strips; serotonin 40 ng/ml; 5 minutes after adding the drug; read-out: ED50 (minimal concentration which reduces the amplitude of the serotonin-induced contraction to at least 50% of its normal value) (converted). The protocol:
ANTAGONISTIC ACTIVITY ON THE EFFECT OF SEROTONIN ON THE CAUDAL ARTERY OF THE RAT
Caudal arteries from fasted male rats (210-235 g) were used in the test. […] Submaximal contractions of the arterial strips were produced by adding single doses of serotonin (40 ng/ml) to the organ bath for 2 minutes with each time an interval of 10 minutes. The amplitude of the contraction was measured before and 5 minutes after adding the drug. After washing out, the agonist was added again three times in order to see whether the contraction was restored and normalized. […] In this connection the ED50 -values are the minimal concentrations of the concerned drugs which reduce the amplitude of the contraction to at least 50% of its normal value.

T1 sequence (P14842 whole entry): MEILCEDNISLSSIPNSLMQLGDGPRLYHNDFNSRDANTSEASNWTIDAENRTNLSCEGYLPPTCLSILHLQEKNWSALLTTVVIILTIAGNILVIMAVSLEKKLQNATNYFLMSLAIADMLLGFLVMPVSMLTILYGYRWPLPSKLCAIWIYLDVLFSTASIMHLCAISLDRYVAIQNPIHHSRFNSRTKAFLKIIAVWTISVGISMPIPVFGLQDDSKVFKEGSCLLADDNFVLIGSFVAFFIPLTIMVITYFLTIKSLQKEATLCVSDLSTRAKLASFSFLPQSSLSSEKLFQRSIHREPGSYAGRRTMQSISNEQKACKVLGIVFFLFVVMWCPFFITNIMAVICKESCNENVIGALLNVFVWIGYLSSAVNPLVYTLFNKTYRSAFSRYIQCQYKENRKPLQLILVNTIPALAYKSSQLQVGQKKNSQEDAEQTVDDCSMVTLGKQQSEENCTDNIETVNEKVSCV

For the compound `Cc1nc2n(c(=O)c1CCN1CCC(=C(c3ccc(F)cc3)c3cccc(C(F)(F)F)c3)CC1)CCCS2` [Compound 120], the IC50 was 1.03 pM. On to `Cc1cccc(C(=C2CCN(CCc3c(C)nc4n(c3=O)CCCS4)CC2)c2ccc(F)cc2)c1` [Compound 121], for which the IC50 was 2.65 pM. Take `Cc1cccc(C(=C2CCN(CCc3c(C)nc4scc(C)n4c3=O)CC2)c2ccc(F)cc2)c1` [Compound 122]: the IC50 is 0.656 pM. As to `Cc1cccc(C(=C2CCN(CCc3c(C)nc4n(c3=O)CCCS4)CC2)c2ccc(F)cc2)c1` [Compound 123], the IC50 is 0.654 pM. The result for `Cc1nc2scc(C)n2c(=O)c1CCN1CCC(=C(c2ccc(F)cc2)c2cccnc2)CC1` [Compound 124] reads 2.74 pM.

Take `Cc1nc2sc(C)c(C)n2c(=O)c1CCN1CCC(=C(c2ccc(F)cc2)c2ccc(F)cc2)CC1` [Compound 127]: the IC50 was 0.633 pM. Take `Cc1ccc(C(=C2CCN(CCc3c(C)nc4n(c3=O)CCCS4)CC2)c2ccccc2)cc1` [Compound 128]: the IC50 is 0.678 pM. For the compound `Cc1ccc(C(=C2CCN(CCc3c(C)nc4scc(C)n4c3=O)CC2)c2ccccc2)cc1` [Compound 129], the IC50 is 0.49 pM.

Regarding `Cc1ccc(C(=C2CCN(CCc3c(C)nc4n(c3=O)CCS4)CC2)c2ccccc2)cc1` [Compound 130], the IC50 is 0.175 pM.

Regarding `Cc1nc2n(c(=O)c1CCN1CCC(=C(c3ccccc3)c3ccc(F)cc3)CC1)CCCC2` [Compound 137, 3-[2-[4-[(4-fluorophenyl)phenylmethylene]-1-piperidinyl]ethyl]-6,7,8,9-tetrahydro-2-methyl-4H-pyrido[1,2-a]pyrimidin-4-one dihydrochloride], the IC50 was 2.45 pM. Next, `Cc1cccc(C(=C2CCN(CCc3c(C)nc4n(c3=O)CCCC4)CC2)c2ccc(F)cc2)c1` [Compound 138, 3-[2-[4-[(4-fluorophenyl)(3-methylphenyl)methylene]-1-piperidinyl]ethyl]-6,7,8,9-tetrahydro-2-methyl-4H-pyrido[1,2-a]pyrimidin-4-one]: 2.65 pM; `Cc1nc2sccn2c(=O)c1CCN1CCC(=C(c2ccccc2)c2ccc(F)cc2)CC1` [Compound 139, 6-[2-[4-[(4-fluorophenyl)phenylmethylene]-1-piperidinyl]ethyl]-7-methyl-5H-thiazolo[3,2-a]pyrimidin-5-one monohydrochloride]: 0.323 pM. As to `Cc1nc2n(c(=O)c1CCN1CCC(=C(c3ccc(F)cc3)c3cccc(C(F)(F)F)c3)CC1)CCCC2` [Compound 140, 3-[2-[4-[(4-fluorophenyl)[3-(trifluoromethyl)phenyl]methylene]-1-piperidinyl]ethyl]-6,7,8,9-tetrahydro-2-methyl-4H-pyrido[1,2-a]pyrimidin-4-one dihydrochloride], the IC50 was 2.09 pM. With `Cc1nc2ccc(N)cn2c(=O)c1CCN1CCC(=C(c2ccc(F)cc2)c2ccc(F)cc2)CC1` [Compound 141, 7-amino-3-[2-[4-[bis(4-fluorophenyl)methylene]-1-piperidinyl]ethyl]-2-methyl-4H-pyrido[1,2-a]-pyrimidin-4-one], the IC50 is 1.46 pM.

For the compound `COc1ccc(C(=C2CCN(CCc3c(C)nc4scc(C)n4c3=O)CC2)c2ccc(F)cc2)cc1` [Compound 142, 6-[2-[4-[(4-fluorophenyl)(4-methoxyphenyl)methylene]-1-piperidinyl]ethyl]-3,7-dimethyl-5H-thiazolo[3,2-a]pyrimidin-5-one], the IC50 is 1.11 pM. As to `COc1ccc(C(=C2CCN(CCc3c(C)nc4ccccn4c3=O)CC2)c2ccc(F)cc2)cc1` [Compound 143, 3-[2-[4-[(4-fluorophenyl)(4-methoxyphenyl)methylene]-1-piperidinyl]ethyl]-2-methyl-4H-pyrido[1,2-a]pyrimidin-4-one dihydrochloride.monohydrate], the IC50 is 1.3 pM. `COc1ccc(C(=C2CCN(CCc3c(C)nc4sccn4c3=O)CC2)c2ccc(F)cc2)cc1` [Compound 144, 6-[2-[4-[(4-fluorophenyl)(4-methoxyphenyl)methylene]-1-piperidinyl]ethyl]-7-methyl-5H-thiazolo[3,2-a]pyrimidin-5-one monohydrochloride]: the IC50 is 1.06 pM. In the case of `COc1ccc(C(=C2CCN(CCc3c(C)nc4n(c3=O)CCCS4)CC2)c2ccc(F)cc2)cc1` [Compound 145, 7-[2-[4-[(4-fluorophenyl)(4-methoxyphenyl)methylene]-1-piperidinyl]ethyl]-3,4-dihydro-8-methyl-2H,6H-pyrimido[2,1-b][1,3]thiazin-6-one dihydrochloride], the IC50 was 2.25 pM. The result for `COc1ccc(C(=C2CCN(CCc3c(C)nc4n(c3=O)CCCC4)CC2)c2ccc(F)cc2)cc1` [Compound 146, 3-[2-[4-[(4-fluorophenyl)(4-methoxyphenyl)methylene]-1-piperidinyl]ethyl]-6,7,8,9-tetrahydro-2-methyl-4H-pyrido[1,2-a]pyrimidin-4-one dihydrochloride] reads 2.32 pM.
